Measurements from patent US12692254B2, “Benzimidazole inhibitors of PAD enzymes” (BRISTOL-MYERS SQUIBB COMPANY, priority 2018, dated 2026).

These compounds were tested against human PAD4 (hPAD4) (Homo sapiens, UniProt Q9UM07) (assay: RFMS human PAD4 functional assay (rapid-fire mass spectrum)). Details: 5 nM hPAD4 enzyme, 250 μM BAEE, 50 μM Calcium; 30 min preincubation, 90 min reaction at 37° C.
Type: biochemical
Method in brief: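 PAD4 (10 nM) preincubated 30 min with compound (top final 50 μM), then BAEE substrate added in pH 7.5 HEPES buffer with DTT, 50 μM calcium, TPEN; 90 min at 37° C. After TCA quench, citrulline derivatized with phenyl glyoxal (4 mM final, 30 min, 37° C) and quantified by RapidFire MS against internal standard.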

Chain of human PAD4 (hPAD4) (Q9UM07 whole entry): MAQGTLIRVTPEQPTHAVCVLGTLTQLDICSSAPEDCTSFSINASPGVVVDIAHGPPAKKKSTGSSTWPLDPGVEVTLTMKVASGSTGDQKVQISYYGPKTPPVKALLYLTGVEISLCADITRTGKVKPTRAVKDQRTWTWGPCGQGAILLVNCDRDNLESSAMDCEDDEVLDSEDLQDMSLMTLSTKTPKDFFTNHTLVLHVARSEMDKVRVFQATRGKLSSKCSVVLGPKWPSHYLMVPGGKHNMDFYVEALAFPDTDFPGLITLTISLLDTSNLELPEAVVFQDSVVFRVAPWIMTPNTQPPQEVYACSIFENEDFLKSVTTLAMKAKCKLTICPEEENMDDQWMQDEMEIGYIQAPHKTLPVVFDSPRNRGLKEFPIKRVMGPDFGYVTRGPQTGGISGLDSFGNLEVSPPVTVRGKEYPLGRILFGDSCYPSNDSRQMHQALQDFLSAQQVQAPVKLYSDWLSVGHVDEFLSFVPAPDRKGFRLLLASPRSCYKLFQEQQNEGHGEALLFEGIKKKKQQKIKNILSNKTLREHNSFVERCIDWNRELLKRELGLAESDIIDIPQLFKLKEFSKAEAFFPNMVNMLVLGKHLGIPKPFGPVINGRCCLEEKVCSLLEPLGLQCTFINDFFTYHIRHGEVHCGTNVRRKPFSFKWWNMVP

SMILES | IC50
COc1cc(C(=O)N2CC3CCC2[C@@H]3N)cc2nc(-c3cc4cccnc4n3CC3CC3)n(CC3CN(C(=O)c4ccc(F)cc4F)C3)c12 (stereo partly drawn) [Example 434, (7R)-2-{2-[1-(cyclopropylmethyl)-1H-pyrrolo[2,3-b]pyridin-2-yl]-1-{[1-(2,4-difluorobenzoyl)azetidin-3-yl]methyl}-7-methoxy-1H-1,3-benzodiazole-5-carbonyl}-2-azabicyclo[2.2.1]heptan-7-amine] | 33 nM
COc1cc(C(=O)N2CC3CCC2[C@@H]3N)cc2nc(-c3cc4cccnc4n3CC3CC3)n(CC3(F)CN(C(=O)c4ccccc4)C3)c12 (stereo partly drawn) [Example 438, (7R)-2-{1-[(1-benzoyl-3-fluoroazetidin-3-yl)methyl]-2-[1-(cyclopropymethyl)-1H-pyrrolo[2,3-b]pyridin-2-yl]-7-methoxy-1H-1,3-benzodiazole-5-carbonyl}-2-azabicyclo[2.2.1]heptan-7-amine] | 35 nM
N[C@@H]1C2CCC1N(C(=O)c1cc(F)c3c(c1)nc(-c1cc4cccnc4n1CC1CC1)n3CC1CN(C(=O)c3ccccc3)C1)C2 (stereo partly drawn) [Example 439, (7R)-2-{1-[(1-benozylazetidin-3-yl)methyl]-2-[1-(cyclopropylmethyl)-1H-pyrrolo[2,3-b]pyridin-2-yl]-7-fluoro-1H-1,3-benzodiazol-5-carbonyl}-2-azabicyclo[2.2.1]heptan-7-amine] | 36 nM
COc1cc(C(=O)N2CC(Cn3c(-c4cc5cccnc5n4CC4CC4)nc4cc(C(=O)N5CC6CCC5[C@@H]6N)cc(OC)c43)C2)ccn1 (stereo partly drawn) [Example 441, (7R)-2-{2-[1-(cyclopropylmethyl)-1H-pyrrolo[2,3-b]pyridin-2-yl]-7-methoxy-1-{[1-(2-methoxypyridine-4-carbonyl)azetidin-3-yl]methyl}-1H-1,3-benzodiazole-5-carbonyl}-2-azabicyclo[2.2.1]heptan-7-amine] | 38 nM
COc1cc(C(=O)N2CC3CCC2[C@@H]3N)cc2nc(-c3cc4cccnc4n3CC3CC3)n(CC3CN(C(=O)c4ccccc4F)C3)c12 (stereo partly drawn) [Example 442, (7R)-2-{2-[1-(cyclopropylmethyl)-1H-pyrrolo[2,3-b]pyridin-2-yl]-1-{[1-(2-fluorobenzoyl)azetidin-3-yl]methyl}-7-methoxy-1H-1,3-benzodiazole-5-carbonyl}-2-azabicyclo[2.2.1]heptan-7-amine] | 39 nM
COc1cc(C(=O)N2CC3CCC2[C@@H]3N)cc2nc(-c3cc4cccnc4n3CC3CC3)n(CC3(C)CN(C(=O)c4ccccc4)C3)c12 (stereo partly drawn) [Example 444, (7R)-2-{1-[(1-benzoyl-3-methylazetidin-3-yl)methyl]-2-[1-(cyclopropylmethyl)-1H-pyrrolo[2,3-b]pyridin-2-yl]-7-methoxy-1H-1,3-benzodiazole-5-carbonyl}-2-azabicyclo[2.2.1]heptan-7-amine] | 43 nM
COc1cc(C(=O)N2CC3CCC2[C@@H]3N)cc2nc(-c3cc4cccnc4n3CC3CC3)n(CC3CN(C(=O)c4ccc(F)cc4)C3)c12 (stereo partly drawn) [Example 447, (7R)-2-{2-[1-(cyclopropylmethyl)-1H-pyrrolo[2,3-b]pyridin-2-yl]-1-{[1-(4-fluorobenzoyl)azetidin-3-yl]methyl}-7-methoxy-1H-1,3-benzodiazole-5-carbonyl}-2-azabicyclo[2.2.1]heptan-7-amine] | 43 nM
Cc1cc(C(=O)N2CC3CCC2[C@@H]3N)cc2nc(-c3cc4ccccc4n3CC3CC3)n(CC3CN(C(=O)c4ccc(C#N)cc4)C3)c12 (stereo partly drawn) [Example 449, 4-[3-({5-[(7R)-7-amino-2-azabicyclo[2.2.1]heptane-2-carbonyl]-2-[1-(cyclopropylmethyl)-1H-indol-2-yl]-7-methyl-1H-1,3-benzodiazol-1-yl}methyl)azetidine-1-carbonyl]benzonitrile] | 44 nM
Cc1cc(C(=O)N2CC3CCC2[C@@H]3N)cc2nc(-c3cc4ccccc4n3CC3CC3)n(CC3CN(C(=O)c4ccccc4)C3)c12 (stereo partly drawn) [Example 450, (7R)-2-{1-[(1-benzoylazetidin-3-yl)methyl]-2-[1-(cyclopropylmethyl)-1H-indol-2-yl]-7-methyl-1H-1,3-benzodiazole-5-carbonyl}-2-azabicyclo[2.2.1]heptan-7-amine] | 46 nM
COc1cc(C(=O)N2C[C@H](N)C[C@@H](F)C2)cc2nc(-c3cc4cccnc4n3CC3CC3)n(CC3CN(C(=O)c4ccccc4)C3)c12 [Example 452, (3R,5R)-1-{[(1-benzoylazetidin-3-yl)methyl]-2-[1-(cyclopropylmethyl)-1H-pyrrolo[2,3-b]pyridin-2-yl]-7-methoxy-1H-1,3-benzodiazole-5-carbonyl}-5-fluoropiperidin-3-amine] | 48 nM
COc1cc(C(=O)N2CC3CCC2[C@@H]3N)cc2nc(-c3cc4cccnc4n3CC3CC3)n(CC3CN(C(=O)c4ccc(C#N)cc4F)C3)c12 (stereo partly drawn) [Example 454, 4-[3-({5-[(7R)-7-amino-2-azabicyclo[2.2.1]heptane-2-carbonyl]-2-(1-(cyclopropylmethyl)-1H-pyrrolo[2,3-b]pyridin-2-yl]-7-methoxy-1H-1,3-benzodiazol-1-yl}methyl)azetidine-1-carbonyl]-3-fluorobenzointrile] | 53 nM
COc1cc(C(=O)N2CC3CCC2[C@@H]3N)cc2nc(-c3cc4cccnc4n3CC3CC3)n(CC3CN(C(=O)Nc4ccccc4)C3)c12 (stereo partly drawn) [Example 455, 3-({5-[(7R)-7-amino-2-azabicyclo[2.2.1]heptane-2-carbonyl]-2-[1-(cyclopropylmethyl)-1H-pyrrolo[2,3-b]pyridin-2-yl]-7-methoxy-1H-1,3-benzodiazol-1-yl}methyl)-N-phenylazetidine-1-carboxamide] | 59 nM

Now from value to compound:

IC50 | SMILES
34 nM | COc1cc(C(=O)N2CC3CCC2[C@@H]3N)cc2nc(-c3cc4ccccc4n3CC3CC3)n(CC3CN(C(=O)c4ccc(C#N)cn4)C3)c12 (stereo partly drawn) [Example 435, 6-[3-({5-[(7R)-7-amino-2-azabicyclo[2.2.1]heptane-2-carobnyl]-2-[1-(cyclopropylmethyl)-1H-indol-2-yl]-7-methoxy-1H-1,3-benzodiazol-1-yl}methyl)azetidine-1-carobnyl]pyridine-3-carbonitrile]
34 nM | COc1cc(C(=O)N2CC3CCC2[C@@H]3N)cc2nc(-c3cc4ccccc4n3CC3CC3)n(CC3CN(C(=O)c4cnccn4)C3)c12 (stereo partly drawn) [Example 436, (7R)-2-{2-[1-(cyclopropylmethyl)-1H-indol-2-yl]-7-methoxy-1-{[1-(pyrazine-2-carbonyl)azetidin-3-yl]methyl}-1H-1,3-benzodiazole-5-carbonyl}-2-azabicyclo[2.2.1]heptan-7-amine]
34 nM | COc1cc(C(=O)N2CC3CCC2[C@@H]3N)cc2nc(-c3cc4ccccc4n3CC3CC3)n(CC3CN(C(=O)c4ccncn4)C3)c12 (stereo partly drawn) [Example 437, (7R)-2-{2-[1-(cyclopropylmethyl)-1H-indol-2-yl]-7-methoxy-1-{[1-(pyrimidine-4-carbonyl)azetidin-3-yl]methyl}-1H-1,3-benzodiazole-5-carbonyl}-2-azabicyclo[2.2.1]heptan-7-amine]
42 nM | COc1cc(C(=O)N2CC3CCC2[C@@H]3N)cc2nc(-c3cc4ccccc4n3CC3CC3)n(CC3CN(C(=O)c4cncnc4)C3)c12 (stereo partly drawn) [Example 443, (7R)-2-{2-[1-(cyclopropylmethyl)-1H-indol-2-yl]-7-methoxy-1-{[1-(pyrimidine-5-carbonyl)azetidin-3-yl]methyl}-1H-1,3-benzodiazole-5-carbonyl}-2-azabicyclo[2.2.1]heptan-7-amine]
43 nM | COc1cc(C(=O)N2CC3CCC2[C@@H]3N)cc2nc(-c3cc4ccccc4n3CC3CC3)n(CC3CN(C(=O)c4ccc(Cl)s4)C3)c12 (stereo partly drawn) [Example 445, (7R)-2-(1-{[1-(5-chlorothiophene-2-carbonyl)azetidin-3-yl]methyl}-2-[1-(cyclopropylmethyl)-1H-indol-2-yl]-7-methoxy-1H-1,3-benzodiazole-5-carbonyl)-2-azabicyclo[2.2.1]heptan-7-amine]
43 nM | COc1cc(C(=O)N2CC3CCC2[C@@H]3N)cc2nc(-c3cc4ccccc4n3CC3CC3)n(CC3CN(C(=O)c4ncccn4)C3)c12 (stereo partly drawn) [Example 446, (7R)-2-{2-[1-(cyclopropylmethyl)-1H-indol-2-yl]-7-methoxy-1-{[1-(pyrimidine-2-carbonyl)azetidin-3-yl]methyl}-1H-1,3-benzodiazole-5-carbonyl}-2-azabicyclo[2.2.1]heptan-7-amine]
44 nM | COc1cc(C(=O)N2CC3CCC2[C@@H]3N)cc2nc(-c3cc4ccccc4n3CC3CC3)n(CC3CN(C(=O)c4cncs4)C3)c12 (stereo partly drawn) [Example 448, (7R)-2-{2-[1-(cyclopropylmethyl)-1H-indol-2-yl]-7-methoxy-1-{[1-(1,3-thiazole-5-carbonyl)azetidin-3-yl]methyl}-1H-1,3-benzodiazole-5-carbonyl}-2-azabicyclo[2.2.1]heptan-7-amine]
47 nM | COc1cc(C(=O)N2CC3CCC2[C@@H]3N)cc2nc(-c3cc4ccccc4n3CC3CC3)n(CC3CN(C(=O)c4ccnc(C#N)c4)C3)c12 (stereo partly drawn) [Example 451, 4-[3-({5-[(7R)-7-amino-2-azabicyclo[2.2.1]heptane-2-carbonyl]-2-[1-(cyclopropylmethyl)-1H-indol-2-yl]-7-methoxy-1H-1,3-benzodiazol-1-yl}methyl)azetidine-1-carbonyl]pyridine-2-carbonitrile]
53 nM | COc1cc(C(=O)N2CC3CCC2[C@@H]3N)cc2nc(-c3cc4ccccc4n3CC3CC3)n(CC3CN(C(=O)c4cscn4)C3)c12 (stereo partly drawn) [Example 453, (7R)-2-{2-[1-(cyclopropylmethyl)-1H-indol-2-yl]-7-methoxy-1-{[1-(1,3-thiazole-4-carbonyl)azetidin-3-yl]methyl}-1H-1,3-benzodiazole-5-carbonyl}-2-azabicyclo[2.2.1]heptan-7-amine]
59 nM | COc1cc(C(=O)N2CC3CCC2[C@@H]3N)cc2nc(-c3cc4cccnc4n3CC3CC3)n(CC3CN(C(=O)c4cccc(Cl)c4)C3)c12 (stereo partly drawn) [Example 456, (7R)-2-(1-{[1-(3-chlorobenzoyl)azetidin-3-yl]methyl}-2-[1-(cyclopropylmethyl)-1H-pyrrolo[2,3-b]pyridin-2-yl]-7-methoxy-1H-1,3-benzodiazole-5-carbonyl)-2-azabicyclo[2.2.1]heptan-7-amine]
